Reference: ChEMBL document CHEMBL4145553, “Design, synthesis, and biological evaluation of novel amide and hydrazide based thioether analogs targeting Histone deacteylase (HDAC) enzymes” (Eur J Med Chem, 2018)

Tests used:
SNB-19 = test: Growth of human SNB19 cells at 10 uM incubated for 48 hrs by sulforhodamine B assay relative to control; settings: SNB-19, 48 h
UACC-62 = test: Growth of human UACC62 cells at 10 uM incubated for 48 hrs by sulforhodamine B assay relative to control; settings: UACC-62, 48 h
HCT-116 = test: Growth of human HCT116 cells at 10 uM incubated for 48 hrs by sulforhodamine B assay relative to control; settings: HCT-116, 48 h
SR = test: Growth of human SR cells at 10 uM incubated for 48 hrs by sulforhodamine B assay relative to control
TK-10 = test: Growth inhibition of human TK10 cells at 10 uM incubated for 48 hrs by sulforhodamine B assay relative to control; type: functional; settings: TK-10, 48 h, values are per cent of control
NCI-H23 = test: Growth inhibition of human NCI-H23 cells at 10 uM incubated for 48 hrs by sulforhodamine B assay relative to control; type: functional; settings: NCI-H23, 48 h, values are per cent of control
SNB-75 = test: Growth of human SNB75 cells at 10 uM incubated for 48 hrs by sulforhodamine B assay relative to control; settings: SNB-75, 48 h
HOP-62 = test: Growth of human HOP62 cells at 10 uM incubated for 48 hrs by sulforhodamine B assay relative to control; settings: HOP-62, 48 h
SF-295 = test: Growth of human SF295 cells at 10 uM incubated for 48 hrs by sulforhodamine B assay relative to control; settings: SF-295, 48 h
A549 = test: Growth of human A549/ATCC cells at 10 uM incubated for 48 hrs by sulforhodamine B assay relative to control; settings: A549, 48 h
SF-268 = test: Growth of human SF268 cells at 10 uM incubated for 48 hrs by sulforhodamine B assay relative to control; settings: SF-268, 48 h
COLO 205 = test: Growth of human COLO205 cells at 10 uM incubated for 48 hrs by sulforhodamine B assay relative to control; settings: COLO 205, 48 h
SK-MEL-28 = test: Growth of human SK-MEL-28 cells at 10 uM incubated for 48 hrs by sulforhodamine B assay relative to control; settings: SK-MEL-28, 48 h
MDA-MB-435 = test: Growth of human MDA-MB-435 cells at 10 uM incubated for 48 hrs by sulforhodamine B assay relative to control; settings: MDA-MB-435, 48 h
OVCAR-8 = test: Growth of human OVCAR8 cells at 10 uM incubated for 48 hrs by sulforhodamine B assay relative to control; settings: OVCAR-8, 48 h
ACHN = test: Growth inhibition of human ACHN cells at 10 uM incubated for 48 hrs by sulforhodamine B assay relative to control; type: functional; settings: values are per cent of control
HCC 2998 = test: Growth of human HCC2998 cells at 10 uM incubated for 48 hrs by sulforhodamine B assay relative to control; settings: HCC 2998, 48 h
RXF 393 = test: Growth inhibition of human RXF393 cells at 10 uM incubated for 48 hrs by sulforhodamine B assay relative to control; type: functional; settings: RXF 393, 48 h, values are per cent of control
IGROV-1 = test: Growth of human IGROV1 cells at 10 uM incubated for 48 hrs by sulforhodamine B assay relative to control; settings: IGROV-1, 48 h
NCI-H460 = test: Growth inhibition of human NCI-H460 cells at 10 uM incubated for 48 hrs by sulforhodamine B assay relative to control; type: functional; settings: NCI-H460, 48 h, values are per cent of control
SF-539 = test: Growth of human SF539 cells at 10 uM incubated for 48 hrs by sulforhodamine B assay relative to control; settings: SF-539, 48 h
KM12 = test: Growth of human KM12 cells at 10 uM incubated for 48 hrs by sulforhodamine B assay relative to control; settings: KM12, 48 h
HCT-15 = test: Growth of human HCT15 cells at 10 uM incubated for 48 hrs by sulforhodamine B assay relative to control; settings: HCT-15, 48 h
SW-620 = test: Growth of human SW620 cells at 10 uM incubated for 48 hrs by sulforhodamine B assay relative to control; settings: SW-620, 48 h
NCI-H322M = test: Growth inhibition of human NCI-H322M cells at 10 uM incubated for 48 hrs by sulforhodamine B assay relative to control; type: functional; settings: values are per cent of control
Malme-3M = test: Growth of human MALME-3M cells at 10 uM incubated for 48 hrs by sulforhodamine B assay relative to control
A498 = test: Growth inhibition of human A498 cells at 10 uM incubated for 48 hrs by sulforhodamine B assay relative to control; type: functional; settings: A498, 48 h, values are per cent of control
UO-31 = test: Growth inhibition of human UO31 cells at 10 uM incubated for 48 hrs by sulforhodamine B assay relative to control; type: functional; settings: UO-31, 48 h, values are per cent of control
PC-3 = test: Growth inhibition of human PC3 cells at 10 uM incubated for 48 hrs by sulforhodamine B assay relative to control; type: functional; settings: PC-3, 48 h, values are per cent of control
CCRF-CEM = test: Growth of human CCRF-CEM cells at 10 uM incubated for 48 hrs by sulforhodamine B assay relative to control
LOX IMVI = test: Growth of human LOXIMVI cells at 10 uM incubated for 48 hrs by sulforhodamine B assay relative to control
MCF7 = test: Growth inhibition of human MCF7 cells at 10 uM incubated for 48 hrs by sulforhodamine B assay relative to control; type: functional; settings: MCF7, 48 h, values are per cent of control
CAKI-1 = test: Growth inhibition of human Caki1 cells at 10 uM incubated for 48 hrs by sulforhodamine B assay relative to control; type: functional; settings: CAKI-1, 48 h, values are per cent of control

Row | Structure (SMILES) | growth, % of control at 10 µM (SNB-19) [%] | growth, % of control at 10 µM (UACC-62) [%] | growth, % of control at 10 µM (HCT-116) [%] | growth, % of control at 10 µM (SR) [%] | growth, % of control at 10 µM (TK-10) [%] | growth, % of control at 10 µM (NCI-H23) [%] | growth, % of control at 10 µM (SNB-75) [%] | growth, % of control at 10 µM (HOP-62) [%] | growth, % of control at 10 µM (SF-295) [%] | growth, % of control at 10 µM (A549) [%] | growth, % of control at 10 µM (SF-268) [%] | growth, % of control at 10 µM (COLO 205) [%] | growth, % of control at 10 µM (SK-MEL-28) [%] | growth, % of control at 10 µM (MDA-MB-435) [%] | growth, % of control at 10 µM (OVCAR-8) [%] | growth, % of control at 10 µM (ACHN) [%] | growth, % of control at 10 µM (HCC 2998) [%] | growth, % of control at 10 µM (RXF 393) [%] | growth, % of control at 10 µM (IGROV-1) [%] | growth, % of control at 10 µM (NCI-H460) [%] | other results
1 | CCS/C(Nc1ccccc1)=C(\C#N)C(=O)N/N=C\c1ccc(Cl)cc1Cl | 19.6 | 26.6 | 17.5 | 19.5 | 56.7 | 41.3 | -6.89 | 36.7 | 17 | 38.3 | 34 | 28.4 | 60.5 | -34.5 | 28.6 | 38.2 | 48.4 | 2.63 | 49.1 | 8.05 | growth, % of control at 10 µM (SF-539): 4.25%; growth, % of control at 10 µM (KM12): 28%; growth, % of control at 10 µM (HCT-15): 19.9%; growth, % of control at 10 µM (SW-620): 18.6%; growth, % of control at 10 µM (NCI-H322M): 70.9%; growth, % of control at 10 µM (Malme-3M): 38.1%; growth, % of control at 10 µM (A498): -2.1%; growth, % of control at 10 µM (UO-31): 41.9%; growth, % of control at 10 µM (PC-3): 31.5%; growth, % of control at 10 µM (CCRF-CEM): 9.86%; growth, % of control at 10 µM (LOX IMVI): 34.4%; growth, % of control at 10 µM (MCF7): 19.3%; growth, % of control at 10 µM (CAKI-1): 31.5%
2 | CC(C)(C)S/C(Nc1ccccc1)=C(\C#N)C(=O)N/N=C\c1ccco1 | 96.9 | 93.5 | 82.9 | 76.5 | 103 | 99 | 82.2 | 93.8 | 102 | 79.6 | 99.7 | 102 | 106 | 101 | 94.9 | 98 | 107 | 105 | 106 | 102 | growth, % of control at 10 µM (SF-539): 94.3%; growth, % of control at 10 µM (KM12): 104%; growth, % of control at 10 µM (HCT-15): 99.2%; growth, % of control at 10 µM (SW-620): 94.4%; growth, % of control at 10 µM (NCI-H322M): 102%; growth, % of control at 10 µM (Malme-3M): 104%; growth, % of control at 10 µM (A498): 87%; growth, % of control at 10 µM (UO-31): 90.2%; growth, % of control at 10 µM (PC-3): 90.7%; growth, % of control at 10 µM (CCRF-CEM): 92.2%; growth, % of control at 10 µM (LOX IMVI): 99.6%; growth, % of control at 10 µM (MCF7): 92.3%; growth, % of control at 10 µM (CAKI-1): 95.8%
3 | CCS/C(Nc1ccccc1)=C(\C#N)C(=O)Nc1ccc(C)cc1 | 93.3 | 80.3 | 90 | 64.2 | 81.7 | 94 | 109 | 103 | 95.7 | 84.5 | 86.8 | 117 | 109 | 102 | 96 | 96.8 | 94.8 | 103 | 99 | 98.8 | growth, % of control at 10 µM (SF-539): 98.2%; growth, % of control at 10 µM (KM12): 96.6%; growth, % of control at 10 µM (HCT-15): 94.8%; growth, % of control at 10 µM (SW-620): 101%; growth, % of control at 10 µM (NCI-H322M): 96.6%; growth, % of control at 10 µM (Malme-3M): 101%; growth, % of control at 10 µM (A498): 79.4%; growth, % of control at 10 µM (UO-31): 75.3%; growth, % of control at 10 µM (PC-3): 97%; growth, % of control at 10 µM (CCRF-CEM): 85.8%; growth, % of control at 10 µM (LOX IMVI): 98.8%; growth, % of control at 10 µM (MCF7): 92.3%; growth, % of control at 10 µM (CAKI-1): 86.8%
4 | CC(C)(C)S/C(Nc1ccccc1)=C(\C#N)C(=O)Nc1ccccc1 | 92.5 | 94.9 | 95.2 | 82.3 | 90.9 | 99.8 | 96.5 | 90.6 | 94.4 | 88.4 | 86.3 | 102 | 105 | 104 | 99.8 | 103 | 106 | 101 | 108 | 103 | growth, % of control at 10 µM (SF-539): 100%; growth, % of control at 10 µM (KM12): 114%; growth, % of control at 10 µM (HCT-15): 101%; growth, % of control at 10 µM (SW-620): 103%; growth, % of control at 10 µM (NCI-H322M): 101%; growth, % of control at 10 µM (Malme-3M): 97.3%; growth, % of control at 10 µM (A498): 92.9%; growth, % of control at 10 µM (UO-31): 86.1%; growth, % of control at 10 µM (PC-3): 95.2%; growth, % of control at 10 µM (CCRF-CEM): 86.4%; growth, % of control at 10 µM (LOX IMVI): 98.8%; growth, % of control at 10 µM (MCF7): 100%; growth, % of control at 10 µM (CAKI-1): 95%
5 | CCS/C(Nc1ccccc1)=C(\C#N)C(=O)Nc1ccccc1 | 91.2 | 79.8 | 92.7 | 70.3 | 76.7 | 94.3 | 102 | 93.1 | 91.3 | 86.2 | 91.2 | 113 | 112 | 110 | 94.2 | 102 | 96.1 | 101 | 105 | 99.5 | growth, % of control at 10 µM (SF-539): 104%; growth, % of control at 10 µM (KM12): 90%; growth, % of control at 10 µM (HCT-15): 93.7%; growth, % of control at 10 µM (SW-620): 103%; growth, % of control at 10 µM (NCI-H322M): 97.2%; growth, % of control at 10 µM (Malme-3M): 117%; growth, % of control at 10 µM (A498): 76.2%; growth, % of control at 10 µM (UO-31): 76%; growth, % of control at 10 µM (PC-3): 92.4%; growth, % of control at 10 µM (CCRF-CEM): 82.4%; growth, % of control at 10 µM (LOX IMVI): 97.9%; growth, % of control at 10 µM (MCF7): 98.6%; growth, % of control at 10 µM (CAKI-1): 87.5%
